Measurements taken from patent US20240238425A1, “HSD17B13 Inhibitors and/or Degraders” (Pfizer Inc., priority 2022, published 2024).
Where a name gives a salt, the structure may show the parent alone.

Test system: HiBiT-HSD17β13 fusion protein (N-terminal HiBiT-tagged HSD17β13 isoform D) in Huh7 HiBiT-HSD17β13 OE cells
Assay: Whole-cell Huh7-HSD17B13 HiBiT assay (degrader potency and maximal efficacy, luminescence readout)
Type: cell-based, human
Conditions: 24 hour incubation, geometric mean, * = geometric mean for all forms tested (parent and salt forms); for DC50: read-out: Huh7_HIBIT-HSD17β13_DC50 GMean DC50; for Huh7_HIBIT-HSD17β13_DC50 GMean Asymptote Maximum: max. concentration 1 μM
Procedure, shortened: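 Huh7 cells stably overexpressing N-terminal HiBiT-tagged HSD17β13 isoform D, clone matched to primary hepatocyte expression, were exposed to an 11-point, 1 in 3.162 dilution series (top 1 μM final) for 24 h at 37° C. Lytic HiBiT luminescence was normalised to DMSO and parental-cell controls; DC50 from four-parameter logistic fit, with CellTiter-Glo counter screen.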

Compound | DC50 [nM] | Huh7_HIBIT-HSD17β13_DC50 GMean Asymptote Maximum
Cl.Cn1c(=O)n(C2CCC(=O)NC2=O)c2ccc(CCCN3Cc4ccc(-c5ccc6cn(C7CCC(CNC(=O)c8cc(F)c(O)c(F)c8F)CC7)nc6c5)cc4C3)cc21 (racemic) [Example 1, N-{[(1r,4r)-4-{6-[2-(3-{1-[(3RS)-2,6-Dioxopiperidin-3-yl]-3-methyl-2-oxo-2,3-dihydro-1H-benzimidazol-5-yl}propyl)-2,3-dihydro-1H-isoindol-5-yl]-2H-indazol-2-yl}cyclohexyl]methyl}-2,3,5-trifluoro-4-hydroxybenzamide, hydrochloride salt] | 0.11 | 87* %
O=C1CCN(c2cnn3cc(CN4CCN(c5cnc(-c6ccc7cn([C@H]8CC[C@H](CNC(=O)c9cc(F)c(O)c(F)c9F)CC8)nc7c6)cn5)CC4)ccc23)C(=O)N1 [Example 70, N-{[(1r,4r)-4-{6-[5-(4-{[3-(2,4-dioxo-1,3-diazinan-1-yl)pyrazolo[1,5-a]pyridin-6-yl]methyl}piperazin-1-yl)pyrazin-2-yl]-2H-indazol-2-yl}cyclohexyl]methyl}-2,3,5-trifluoro-4-hydroxybenzamide, trifluoroacetate salt] | 1.1 | 85%
O=C1CCN(c2cnn3cc(CCCN4Cc5ccc(-c6ccc7cn([C@H]8CC[C@H](CNC(=O)c9cc(F)c(O)c(F)c9F)CC8)nc7c6)cc5C4)ccc23)C(=O)N1 [Example 131, N-({(1r,4r)-4-[6-(2-{3-[3-(2,4-dioxo-1,3-diazinan-1-yl)pyrazolo[1,5-a]pyridin-6-yl]propyl}-2,3-dihydro-1H-isoindol-5-yl)-2H-indazol-2-yl]cyclohexyl}methyl)-2,3,5-trifluoro-4-hydroxybenzamide, trifluoroacetate salt] | 0.87 | 78%
Cn1c(=O)n(C2CCC(=O)NC2=O)c2ccc(CCC3CN(c4ncc(-c5ccc6cn([C@H]7CC[C@H](CNC(=O)c8cc(F)c(O)c(F)c8F)CC7)nc6c5)cn4)C3)cc21 (mixture of isomers) [Example 41, N-{[(1r,4r)-4-(6-{2-[3-(2-{1-[(3RS)-2,6-dioxopiperidin-3-yl]-3-methyl-2-oxo-2,3-dihydro-1H-benzimidazol-5-yl}ethyl)azetidin-1-yl]pyrimidin-5-yl}-2H-indazol-2-yl)cyclohexyl]methyl}-2,3,5-trifluoro-4-hydroxybenzamide] | 0.86 | 81%
Cn1c(=O)n(C2CCC(=O)NC2=O)c2ccc(CN3CCN(c4ccc5cn([C@H]6CC[C@H](CNC(=O)c7cc(F)c(O)c(F)c7F)CC6)nc5c4)CC3)cc21 (mixture of isomers) [Example 51, N-{[(1r,4r)-4-{6-[4-({1-[(3RS)-2,6-dioxopiperidin-3-yl]-3-methyl-2-oxo-2,3-dihydro-1H-benzimidazol-5-yl}methyl)piperazin-1-yl]-1H-indazol-2-yl}cyclohexyl]methyl}-2,3,5-trifluoro-4-hydroxybenzamide, trifluoroacetate salt] | 2.1 | 73%
Cn1c(=O)n(C2CCC(=O)NC2=O)c2ccc(CCCN3CCN(c4cnc(-c5ccn6cc([C@]78CC[C@](CNC(=O)c9cc(F)c(O)c(F)c9F)(CC7)CC8)nc6c5)cn4)CC3)cc21 (mixture of isomers) [Example 130, N-{[4-(7-{5-[4-(3-{1-[(3RS)-2,6-dioxopiperidin-3-yl]-3-methyl-2-oxo-2,3-dihydro-1H-benzimidazol-5-yl}propyl)piperazin-1-yl]pyrazin-2-yl}imidazo[1,2-a]pyridin-2-yl)bicyclo[2.2.2]octan-1-yl]methyl}-2,3,5-trifluoro-4-hydroxybenzamide, trifluoroacetate salt] | 0.5 | 83%
Cn1c(=O)n(C2CCC(=O)NC2=O)c2ccc(CCN3CCC(Cc4ccc5cn([C@H]6CC[C@H](CNC(=O)c7cc(F)c(O)c(F)c7F)CC6)nc5c4)C(F)(F)C3)cc21 (mixture of isomers) [Example 64, N-{[(1r,4r)-4-(6-{[1-(2-{1-[(3RS)-2,6-dioxopiperidin-3-yl]-3-methyl-2-oxo-2,3-dihydro-1H-benzimidazol-5-yl}ethyl)-3,3-difluoropiperidin-4-yl]methyl}-2H-indazol-2-yl)cyclohexyl]methyl}-2,3,5-trifluoro-4-hydroxybenzamide, trifluoroacetate salt] | 0.51 | 85%
Cn1c(=O)n(C2CCC(=O)NC2=O)c2ccc(CCCN3CCN(c4cccc(-c5nc(C67CCC(CNC(=O)c8cc(F)c(O)c(F)c8F)(CC6)CC7)no5)c4)CC3)cc21 (racemic) [Example 81, N-{[4-(5-{3-[4-(3-{1-[(3RS)-2,6-dioxopiperidin-3-yl]-3-methyl-2-oxo-2,3-dihydro-1H-benzimidazol-5-yl}propyl)piperazin-1-yl]phenyl}-1,2,4-oxadiazol-3-yl)bicyclo[2.2.2]octan-1-yl]methyl}-2,3,5-trifluoro-4-hydroxybenzamide] | 0.86 | 81%
O=C1CCN(c2cnn3cc(CCN4CCN(c5ncc(-c6ccc7cn([C@H]8CC[C@H](CNC(=O)c9cc(F)c(O)c(F)c9F)CC8)nc7c6)cn5)CC4)ccc23)C(=O)N1 [Example 54, N-{[(1r,4r)-4-{6-[2-(4-{2-[3-(2,4-dioxo-1,3-diazinan-1-yl)pyrazolo[1,5-a]pyridin-6-yl]ethyl}piperazin-1-yl)pyrimidin-5-yl]-2H-indazol-2-yl}cyclohexyl]methyl}-2,3,5-trifluoro-4-hydroxybenzamide, trifluoroacetate salt] | 0.64 | 83%

Now from value to molecule, other results behind:

DC50 [nM] | Compound | Huh7_HIBIT-HSD17β13_DC50 GMean Asymptote Maximum
0.3 | Cn1c(=O)n(C2CCC(=O)NC2=O)c2ccc(CCCN3CCc4ccc(-c5ccc6cn([C@H]7CC[C@H](CNC(=O)c8cc(F)c(O)c(F)c8F)CC7)nc6c5)cc4C3)cc21 (mixture of isomers) [Example 32, N-{[(1r,4r)-4-{6-[2-(3-{1-[(3RS)-2,6-dioxopiperidin-3-yl]-3-methyl-2-oxo-2,3-dihydro-1H-benzimidazol-5-yl}propyl)-1,2,3,4-tetrahydroisoquinolin-7-yl]-2H-indazol-2-yl}cyclohexyl]methyl}-2,3,5-trifluoro-4-hydroxybenzamide, trifluoroacetate salt] | 83%
0.26 | Cn1c(=O)n(C2CCC(=O)NC2=O)c2ccc(CCCN3CCc4nc(-c5ccc6cn([C@H]7CC[C@H](CNC(=O)c8cc(F)c(O)c(F)c8F)CC7)nc6c5)sc4C3)cc21 (mixture of isomers) [Example 115, N-{[(1r,4r)-4-{6-[5-(3-{1-[(3RS)-2,6-dioxopiperidin-3-yl]-3-methyl-2-oxo-2,3-dihydro-1H-benzimidazol-5-yl}propyl)-4,5,6,7-tetrahydro[1,3]thiazolo[5,4-c]pyridin-2-yl]-2H-indazol-2-yl}cyclohexyl]methyl}-2,3,5-trifluoro-4-hydroxybenzamide, trifluoroacetate salt] | 79%
0.38 | Cn1c(=O)n(C2CCC(=O)NC2=O)c2ccc(CCCN3CCc4nc(-c5ccc6cn([C@H]7CC[C@H](CNC(=O)c8cc(F)c(O)c(F)c8F)CC7)nc6c5)ccc4C3)cc21 (mixture of isomers) [Example 21, N-{[(1r,4r)-4-{6-[6-(3-{1-[(3RS)-2,6-Dioxopiperidin-3-yl]-3-methyl-2-oxo-2,3-dihydro-1H-benzimidazol-5-yl}propyl)-5,6,7,8-tetrahydro-1,6-naphthyridin-2-yl]-2H-indazol-2-yl}cyclohexyl]methyl}-2,3,5-trifluoro-4-hydroxybenzamide] | 74%
0.31 | Cn1c(=O)n(C2CCC(=O)NC2=O)c2ccc(CCN3CCOC4(C3)CN(c3ncc(-c5ccc6cn([C@H]7CC[C@H](CNC(=O)c8cc(F)c(O)c(F)c8F)CC7)nc6c5)cn3)C4)cc21 (mixture of isomers) [Example 79, N-{[(1r,4r)-4-(6-{2-[8-(2-{1-[(3RS)-2,6-dioxopiperidin-3-yl]-3-methyl-2-oxo-2,3-dihydro-1H-benzimidazol-5-yl}ethyl)-5-oxa-2,8-diazaspiro[3.5]nonan-2-yl]pyrimidin-5-yl}-2H-indazol-2-yl)cyclohexyl]methyl}-2,3,5-trifluoro-4-hydroxybenzamide, trifluoroacetate salt] | 78%
0.23 | Cn1c(=O)n(C2CCC(=O)NC2=O)c2ccc(CCN3CCOC4(CCN(c5ccc6cn([C@H]7CC[C@H](CNC(=O)c8cc(F)c(O)c(F)c8F)CC7)nc6c5)CC4)C3)cc21 (mixture of isomers) [Example 74, N-{[(1r,4r)-4-{6-[4-(2-{1-[(3RS)-2,6-dioxopiperidin-3-yl]-3-methyl-2-oxo-2,3-dihydro-1H-benzimidazol-5-yl}ethyl)-1-oxa-4,9-diazaspiro[5.5]undecan-9-yl]-2H-indazol-2-yl}cyclohexyl]methyl}-2,3,5-trifluoro-4-hydroxybenzamide, trifluoroacetate salt] | 87%
0.23 | Cc1sc([C@]23CC[C@](CNC(=O)c4cc(F)c(O)c(F)c4F)(CC2)CC3)nc1-c1ccnc(N2CCN(CCCc3ccc4c(c3)n(C)c(=O)n4C3CCC(=O)NC3=O)CC2)n1 (mixture of isomers) [Example 122, N-{[4-(4-{2-[4-(3-{1-[(3RS)-2,6-dioxopiperidin-3-yl]-3-methyl-2-oxo-2,3-dihydro-1H-benzimidazol-5-yl}propyl)piperazin-1-yl]pyrimidin-4-yl}-5-methyl-1,3-thiazol-2-yl)bicyclo[2.2.2]octan-1-yl]methyl}-2,3,5-trifluoro-4-hydroxybenzamide] | 73%
